Results on 13 compounds are retold here after patent US20170029454A1, “NKT CELL LIGANDS AND METHODS OF USE” (THE SCRIPPS RESEARCH INSTITUTE, priority 2013, published 2017).

Read-outs that look alike come from different tables or passages of the source.

One data set deals with L363 antibody. Nature of the data set: Surface plasmon resonance: binding of immobilized L363 antibody to CD1d-lipid complexes. To be noted: for Affinity Kd (Kdiss/Kass) / Kdiss (L363 binding to CD1d-lipid complex) / Kd: lipid loaded on mCD1d, single cycle SPR, Biacore T200; for Kd: read-out: Affinity Kd (Kdiss/Kass); for binding of L363 to lipid loaded into CD1d: SPR. How it is done: Single cycle analysis was performed on CM5 chips using 250-1000 RUs of immobilized antibody and increasing concentrations of CD1-lipid complexes.
(§1) A Biacore T200 instrument (GE Healthcare, Pittsburgh, Pa.) was used for SPR measurements. Measurements were performed using single cycle protocols to avoid repeated use of regeneration buffer on the immobilized ligands. Immobilization of target antibodies was carried out using classical amine coupling chemistry. 250 to 1,000 RU of antibody was immobilized in each flow cell. All mCD1-lipid complexes were purified after loading to ensure maximal homogeneity and avoid the presence of small amounts of aggregated material. Concentrations ranging from […] were used for each CD1-lipid complex. Flow cell one was used as a negative control and used for subtraction from experimental flow cells. Global analysis of subtracted sensorgrams was carried out using the T200 analysis software.
as §1, with “(available from GE” for “(GE”, “cells (L363 antibody—control antibody).” for “cells.”
In general terms: Surface plasmon resonance follows binding to a sensor surface in real time, without labels.

The test system of the next data set is DN32.D3 NKT cells. Nature of the data set: T cell activation assay (IL-2 production) with Vα14 NKT hybridoma DN32.D3. The data set is classed as cell-based. Particulars: for effect on stimulation of NKT cells, FIG. 10 legend: DC3.2 cells treated with recombinant TNFα (legend FIG. 10); for effect on stimulation of NKT cells in the context of TNFα stimulation: DC3.2 cells, TNFα stimulation (FIG. 11); for effect on stimulation of NKT cells by DCs: non-differentiated and LPS-treated DC3.2 cells, 1-deoxygalactonojirimycin 0.5 μM, 1-deoxygluconojirimycin 2.0 μM; for effect of ceramidase inhibition on stimulatory activity towards NKT cells: untreated or LPS-treated DC3.2 cells, 24 h. How it is done:
T cell hybridoma cells were cultured in RPMI supplemented with 10% FCS, 2 mM L-glutamine, 20 mM HEPES, and non-essential amino acids. Antigen presentation assays were carried out using 5-20×10^3 DC 3.2 cells or 1×10^5 splenocytes and 4×10^4 T cells per well in 96 well tissue culture plates in triplicates. Cell culture supernatants were collected 24 h later for determination of IL-2 concentrations using an IL-2-dependent NK cell line reporter system. NKT cells have a memory phenotype and hallmarks of “pre-activation” when analyzed ex vivo. In vitro they have been described as being highly autoreactive by their propensity at being activated by syngeneic target cells expressing CD1d molecules (Bendelac et al. 2007, Annual Rev. Immuno., 25:297; Park et al., 1998, J. Immunol., 160:3128). This phenomenon can be illustrated by the activation of Vα14 NKT hybridoma cell DN32.D3 against RBL-CD1, a CD1d positive cell line, that have been stimulated by […] ligands. Stimulation of DN32.D3 cells and TBA.7 cells, a non-Vα14 NKT cell hybridoma, was tested against RBL-CD1 or RBL-CD1 SAP^-/- in which […] expression was knocked down by interfering RNAs. The hybridoma cells were cultured in RPMI supplemented with 10% FCS, 2 mM L-glutamine, 20 mM HEPES, and non-essential amino acids. Antigen presentation assays were carried out using 5-20×10^3 DC 3.2 cells or 1×10^5 splenocytes and 4×10^4 T cells per well in 96-well tissue culture plates in triplicates. Cell culture supernatants were collected 24 h later for determination of IL-2 concentrations using an IL-2-dependent NK cell line reporter system. […] The results are shown in FIGS. 14A-E. A control (open circles) was included for comparison with each inhibitor (filled circles).

The target in another data set is T1, ASAHL (NAAA) (Homo sapiens, UniProt Q02083).
T1 sequence (Q02083 29-359): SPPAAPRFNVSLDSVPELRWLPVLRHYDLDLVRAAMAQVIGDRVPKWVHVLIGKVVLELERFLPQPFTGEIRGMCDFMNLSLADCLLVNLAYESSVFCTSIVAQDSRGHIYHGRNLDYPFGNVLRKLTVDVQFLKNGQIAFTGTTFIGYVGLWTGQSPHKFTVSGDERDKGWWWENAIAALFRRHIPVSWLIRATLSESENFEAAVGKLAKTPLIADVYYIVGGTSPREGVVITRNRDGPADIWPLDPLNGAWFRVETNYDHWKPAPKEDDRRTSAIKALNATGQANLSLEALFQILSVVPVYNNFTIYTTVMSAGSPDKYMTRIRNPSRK
Nature of the data set: Specific activity of the ASAHL inhibitor. The data set is classed as biochemical. Also noted: unit not given here.

A further data set relates to DC3.2 cells. Nature of the data set: Toxicity of ceramidase inhibitors over a 24 h assay (viability and αGalCer presentation to DN32.D3 cells). Format: cell-based. As for the experimental part: In the absence of a suitable animal model, enzyme inhibitors were used to assess the role of ceramidases in the control of NKT ligands. […] In the T-cell activation assays, DC3.2 cells were differentiated with LPS and treated with inhibitors of α-glycosidases (GLAi and/or GAAi), 1-deoxygalactonojirimycin (0.5 μM) and 1-deoxygluconojirimycin (2.0 μM), respectively, or ceramidase inhibitors (NAAA/ASAHLi(27) (20 μM) or AC/ASAH1i, carmofur (1.0 μM) for 24 h and used to stimulate DN32.D3 NKT cells. The results are shown in FIGS. 14A-E. A control (open circles) was included for comparison with each inhibitor (filled circles).

The next data set concerns the target T2, CD1d (Mus musculus, UniProt P11609).
T2 sequence (P11609 19-297 limits assumed): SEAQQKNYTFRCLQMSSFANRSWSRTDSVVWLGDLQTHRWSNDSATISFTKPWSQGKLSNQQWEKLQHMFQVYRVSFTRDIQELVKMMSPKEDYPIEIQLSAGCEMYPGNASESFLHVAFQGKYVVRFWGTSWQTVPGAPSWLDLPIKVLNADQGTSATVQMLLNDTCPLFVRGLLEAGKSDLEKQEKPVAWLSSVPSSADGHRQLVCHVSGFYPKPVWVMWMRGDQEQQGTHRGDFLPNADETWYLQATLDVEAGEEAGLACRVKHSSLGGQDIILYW
T2 sequence (P01887 21-119 partner): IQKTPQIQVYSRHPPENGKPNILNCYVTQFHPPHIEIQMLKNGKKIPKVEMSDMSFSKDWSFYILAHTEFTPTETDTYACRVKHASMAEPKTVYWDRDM
As to the kind of experiment: In vitro binding of detergent to CD1d. To be noted: in vitro (data not shown).

Another data set deals with L317 antibody. Nature of the data set: Surface plasmon resonance: binding of L317 antibody to CD1d-lipid complexes. To be noted: SPR. As for the experimental part:
as §1
as §1, with “(available from GE” for “(GE”, “Flow cell one was used as a negative control and used for subtraction from experimental flow cells. Global analysis of subtracted sensorgrams was carried out using the T200 analysis software.” left out

Where [1] appears, read: carmofur 1.0 μM, NAAA/ASAHLi 20 μM.

Consider `CCCCCCCCCCCCCC[C@@H](O)C(O)[C@@H](N)COC1OC(CO)C(O)C(O)C1O` (stereo partly drawn), for which the “Affinity Kd (Kdiss/Kass)” value on L363 antibody is “N.M”.
On to `OC[C@H]1NC[C@H](O)[C@@H](O)[C@H]1O` [1-deoxygalactonojirimycin], for which, in the data set with DN32.D3 NKT cells, the “effect on stimulation of NKT cells, FIG. 10 legend” value is recorded as “induced or increased stimulation of NKT cells”; the “effect on stimulation of NKT cells in the context of TNFα stimulation” value is listed as “did not increase stimulation of NKT cells”; the “effect on stimulation of NKT cells by DCs” value is listed as “induced or increased a robust stimulation of NKT cells”.
In the case of `OC[C@H]1NC[C@H](O)[C@@H](O)[C@@H]1O` [1-deoxygluconojirimycin], in the data set with DN32.D3 NKT cells, the “effect on stimulation of NKT cells, FIG. 10 legend” value is on record as “induced or increased stimulation of NKT cells”; the “effect on stimulation of NKT cells in the context of TNFα stimulation” value was “did not increase stimulation of NKT cells”; the “effect on stimulation of NKT cells by DCs” value is reported as “did not result in significant increase in stimulatory activity”.
Regarding `O=C(CCc1ccc(-c2ccccc2)cc1)N1CCCC1` [NAAA inhibitor, 1-(2-Biphenyl-4-yl)ethyl-carbonyl pyrrolidine], the “effect on stimulatory activity of thymocytes towards DN32.D3” value in the data set with DN32.D3 NKT cells (thymocytes as APC, NAAA/ASAHLi 20 μM) is “no effect”. Also, the “effect of ceramidase inhibition on stimulatory activity towards NKT cells” value with DN32.D3 NKT cells (setting [1]) is given as “very limited but reproducible increase in stimulatory activity”. Further, the “specific activity of the inhibitor of ASAHL” value at ASAHL (NAAA) was 10-200.
Turning to `CCCCCCCCCCCCCC(=O)N[C@H](CO)[C@H](O)c1ccc([N+](=O)[O-])cc1` [NMAPPD, N-[(1R,2R)-2-hydroxy-1-(hydroxymethyl)-2-(4-nitrophenyl)ethyl]-tetradecanamide], the “toxicity over a 24 h assay” value in the data set on DC3.2 cells was “too much toxicity”.
Take `CCCCCCCCCCCC1(C)OCC(COCCCS(=O)(=O)[O-])O1.[Na+]` (stereo not drawn) [Sodium 3-[(2-methyl-2-undecyl-1,3-dioxolan-4-yl)methoxy]-1-propanesulfonate]: the “binding to CD1d” value at CD1d is given as “not bind CD1d to any measurable extent”.
`CCCCCCNC(=O)n1cc(F)c(=O)[nH]c1=O` [carmofur, 1-Hexylcarbamoyl-5-fluorouracil]: the “toxicity over a 24 h assay” value in the data set with DC3.2 cells (viability and αGalCer presentation to DN32.D3 cells after treatment) is reported as “very limited cell toxicity”. The “increase of stimulatory activity of thymocytes towards DN32.D3” value in the data set on DN32.D3 NKT cells (thymocytes as APC, carmofur 1.0 μM) came to 2.5 fold. Besides, the “effect of ceramidase inhibition on stimulatory activity towards NKT cells” value in the data set with DN32.D3 NKT cells (setting [1]) was “significant increase in stimulatory activity”.
Consider `CCCCCCCC/C=C\CCCCCCCCCCCCCC(=O)N[C@@H](COC1OC(CO)C(O)C(O)C1O)C(O)/C=C/CCCCCCCCCCCCC` (stereo partly drawn) [αGalCer24:1], for which, on L363 antibody, the “Kdiss (L363 binding to CD1d-lipid complex)” value turned out to be 0.05 s⁻¹ and the Kd came to 350 nM.
Consider `CCCCCCCCCCCCCCCCCCCCCCCCCC(=O)N[C@@H](COC1OC(CO)C(O)C(O)C1O)C(O)[C@H](O)CCCCCCCCCCCCCC` (stereo partly drawn) [αGalCer], for which, on L363 antibody, the “Kdiss (L363 binding to CD1d-lipid complex)” value was found to be 0.0083 s⁻¹ and the Kd stood at 96.7 nM.
The like results for `CCCCCCCCCCCCC/C=C/C(O)[C@H](COC1OC(CO)C(O)C(O)C1O)NC(=O)CCCCCCCCCCCCCCCCCCCCCCCCC` (stereo partly drawn) [αGluCer] were, in that order, 0.4711 s⁻¹ and 5020 nM.
As to `CCCCCCCC/C=C\CCCCCCCCCCCCCC(=O)N[C@@H](COC1OC(CO)C(O)C(O)C1O)C(O)/C=C/CCCCCCCCCCCCC` (stereo partly drawn) [βGluCer24:1], the “stimulatory activity towards DN32.D3 after digestion with recombinant GBA” value in the data set with DN32.D3 NKT cells (GBA 2 h at 37° C., WT splenocytes 10^5 cells/well) was “Stimulatory activity was not changed”. At L363 antibody, the “Affinity Kd (Kdiss/Kass)” value is given as “N.M”.
isoglobotrihexosylceramide [iGb3]: in the data set with L317 antibody, the “binding of L317 to lipid loaded into CD1d” value is “no ability to bind”. Further, the “binding of L363 to lipid loaded into CD1d” value in the data set on L363 antibody is “no ability to bind”.
As to αGal(α1-2)Galactosylceramide, the “binding of L317 to lipid loaded into CD1d” value in the data set with L317 antibody is “no ability to bind”. Further, the “binding of L363 to lipid loaded into CD1d” value in the data set on L363 antibody is given as “no ability to bind”.
